From ChEMBL document CHEMBL4392856, “Synthesis of diphenoxyadamantane alkylamines with pharmacological interest” (Bioorg Med Chem Lett, 2019)
pIC50: −log10 of the molar value. In brackets after ≈: the same amount, converted by molar mass.

Columns and labels:
Trypanosoma brucei = experiment: Antitrypanosomal activity against Trypanosoma brucei 427 bloodstream forms assessed as inhibition of parasite growth incubated for 48 hrs by Alamar blue assay; format: functional, organism-based; conditions: Trypanosoma brucei, 427, 48 h
[1] = system: Mycobacterium tuberculosis; experiment: Antimycobacterial activity against Mycobacterium tuberculosis assessed as inhibition of parasite growth at 1 ug/ml incubated for 6 days by REMA method relative to untreated control; format: functional; conditions: 144 h
L6 = experiment: Cytotoxic activity against rat L6 cells assessed as reduction in cell viability incubated for 6 days by Alamar blue assay; format: cell-based; conditions: L6, 144 h
[2] = system: Mycobacterium tuberculosis; experiment: Antimycobacterial activity against […] assessed as inhibition of parasite growth incubated for 6 days by REMA method; format: functional
[3] = system: Mycobacterium tuberculosis; experiment: Antimycobacterial activity against Mycobacterium tuberculosis H37Rv assessed as inhibition of parasite growth incubated for 6 days by REMA method; format: functional; conditions: 144 h

In the case of CN1CCN(CCOc2ccc(C3(c4ccc(OCCN5CCN(C)CC5)cc4)C4CC5CC(C4)CC3C5)cc2)CC1, the pIC50 (Trypanosoma brucei) was 7.29, the IC90 (Trypanosoma brucei) was 70 nM and the inhibition at 1 µg/mL [1] was 0.04%. For the same compound, the pIC50 (L6) was 6.48, the Imax [2] was 100% and the MIC [3] was 4.59 µM (≈ 2.63 µg/mL).

For CCCCCCNCC(O)COc1ccc(C23CC4CC(C2)CC(c2ccc(OCC(O)CNCCCCCC)cc2)(C4)C3)cc1 (stereo not given), the pIC50 (Trypanosoma brucei) was 6.69, the IC90 (Trypanosoma brucei) was 272 nM and the inhibition at 1 µg/mL [1] was 0%. It also gave a pIC50 (L6) of 6.35, an Imax [2] of 0% and an MIC [3] of 0.084 µM (≈ 0.0533 µg/mL).

CN(C)CC(O)COc1ccc(C23CC4CC(C2)CC(c2ccc(OCC(O)CN(C)C)cc2)(C4)C3)cc1 (stereo not given) was tested, and the pIC50 (Trypanosoma brucei) was 6.77, the IC90 (Trypanosoma brucei) was 235 nM and the pIC50 (L6) was 6.54.

OC(COc1ccc(C23CC4CC(C2)CC(c2ccc(OCC(O)CN5CCCCC5)cc2)(C4)C3)cc1)CN1CCCCC1 (stereo not given) gave a pIC50 (Trypanosoma brucei) of 6.60, an IC90 (Trypanosoma brucei) of 292 nM and an inhibition at 1 µg/mL [1] of 0.17%. It also gave a pIC50 (L6) of 6.57, an Imax [2] of 99% and an MIC [3] of 10.4 µM (≈ 6.27 µg/mL).

For CCCCNCC(O)COc1ccc(C23CC4CC(C2)CC(c2ccc(OCC(O)CNCCCC)cc2)(C4)C3)cc1 (stereo not given), the pIC50 (Trypanosoma brucei) was 7.03, the IC90 (Trypanosoma brucei) was 110 nM and the inhibition at 1 µg/mL [1] was 50%. It also gave a pIC50 (L6) of 6.26, an Imax [2] of 100% and an MIC [3] of 4.14 µM (≈ 2.4 µg/mL).

Work on CN1CCN(CC(O)COc2ccc(C34CC5CC(C3)CC(c3ccc(OCC(O)CN6CCN(C)CC6)cc3)(C5)C4)cc2)CC1 (stereo not given) yielded a pIC50 (Trypanosoma brucei) of 6.75, an IC90 (Trypanosoma brucei) of 207 nM and an inhibition at 1 µg/mL [1] of 5%. It also gave a pIC50 (L6) of 6.59, an Imax [2] of 95% and an MIC [3] of 20.5 µM (≈ 13 µg/mL).

OCCN(CCO)CC(O)COc1ccc(C2(c3ccc(OCC(O)CN(CCO)CCO)cc3)C3CC4CC(C3)CC2C4)cc1 (stereo not given) was tested, and the MIC [3] was 24.3 µM (≈ 15.6 µg/mL).

CN1CCN(CC(O)COc2ccc(C3(c4ccc(OCC(O)CN5CCN(C)CC5)cc4)C4CC5CC(C4)CC3C5)cc2)CC1 (stereo not given) gave a pIC50 (Trypanosoma brucei) of 6.94, an IC90 (Trypanosoma brucei) of 138 nM and a pIC50 (L6) of 6.27. For the same compound, the MIC [3] was 8.5 µM (≈ 5.38 µg/mL).

CC[C@@H](CO)NCCN[C@@H](CC)CO [ETHAMBUTOL] gave an inhibition at 1 µg/mL [1] of 0%, an Imax [2] of 0% and an MIC [3] of 0.11 µM (≈ 0.0225 µg/mL).

CSc1ccc(OCc2ncc([N+](=O)[O-])n2C)cc1 [FEXINIDAZOLE] gave a pIC50 (Trypanosoma brucei) of 6.00.

Compound CO[C@H]1/C=C/O[C@@]2(C)Oc3c(C)c(O)c4c(O)c(c(/C=N/N5CCN(C)CC5)c(O)c4c3C2=O)NC(=O)/C(C)=C\C=C\[C@H](C)[C@H](O)[C@@H](C)[C@@H](O)[C@@H](C)[C@H](OC(C)=O)[C@@H]1C [RIFAMPIN] has an inhibition at 1 µg/mL [1] of 13%, an Imax [2] of 54% and an MIC [3] of 0.001 µM (≈ 0.000823 µg/mL).
